According to publication PMC7422938 (Chemical research in toxicology, 2020):
“Also recorded” adds a separate entry of the source.

Biological target: T1, microsomal recombinant human cytochrome P450 2A6 (CYP2A6) (Homo sapiens, UniProt P11509)
T1 sequence (P11509 1-494): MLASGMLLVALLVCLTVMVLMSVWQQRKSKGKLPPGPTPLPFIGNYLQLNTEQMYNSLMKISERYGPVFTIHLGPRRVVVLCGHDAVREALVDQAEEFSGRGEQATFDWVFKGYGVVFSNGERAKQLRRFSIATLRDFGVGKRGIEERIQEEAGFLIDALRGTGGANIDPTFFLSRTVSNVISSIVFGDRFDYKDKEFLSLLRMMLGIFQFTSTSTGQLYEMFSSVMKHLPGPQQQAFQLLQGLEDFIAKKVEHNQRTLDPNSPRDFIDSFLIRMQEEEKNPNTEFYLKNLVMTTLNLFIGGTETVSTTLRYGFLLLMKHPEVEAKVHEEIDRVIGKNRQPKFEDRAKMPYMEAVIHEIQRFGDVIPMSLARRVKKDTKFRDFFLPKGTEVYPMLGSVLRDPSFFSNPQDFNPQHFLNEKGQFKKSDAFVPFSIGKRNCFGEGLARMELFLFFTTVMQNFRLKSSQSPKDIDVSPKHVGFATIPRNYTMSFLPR
Experiment: Vivid fluorescence-based CYP2A6 inhibition screening
Assay type: biochemical

| SMILES | IC50 [µM] | CYP2A6 inhibition (flavoring agent at 500 μM) | CYP2A6 inhibition (flavoring agent up to 500 μM (highest concentration)) |
| --- | --- | --- | --- |
| O=Cc1ccccc1 [Benzaldehyde, benzaldehyde] | 3 | – | – |
| O=C/C=C/c1ccccc1 [Cinnamaldehyde, trans-cinnamaldehyde] | 1.1 | – | – |
| CCOc1cc(C=O)ccc1O [Ethyl vanillin, ethyl-vanillin] | 69.4 | near-maximal inhibition | – |
| CC(=O)OCCC(C)C [Isoamyl Acetate, isoamyl acetate] | > 500 | – | negligible inhibition; also recorded: no inhibition |
| COc1cc(C=O)ccc1O [Vanillin, vanillin] | 70 | near-maximal inhibition | – |
